In patent US20020028942A1, “Novel process and compound” (priority 1997, published 2002):
Structures can show the parent of a compound that is named as a salt. One block for each compound: values may come before it.

How the values were obtained:
[1] = Stability of aqueous solutions; format: physicochemical
Excerpt: The feedstock for freeze-drying may be prepared conveniently by, for example, dissolution of paroxetine free base in aqueous hydrochloric acid, although other solid forms of paroxetine hydrochloride may also be dissolved. For example, the feedstock may be prepared by dissolving amorphous paroxetine hydrochloride or a crystalline paroxetine hydrochloride anhydrate, hydrate or solvate in suitable solvent. The solvent used may be pure water or a mixture of water with compatible organic solvents. […] Suitable concentrations of paroxetine hydrochloride for freeze-drying are in the range 1 to 30% by weight, preferably in the range 5% to 20% by weight.
Processing at elevated temperature may be employed to reduce the risk of unwanted crystallisation during processing but is not essential.

[2] = known forms, well documented in the literature; cited from earlier work
[3] = Solubility / dissolution in water; format: physicochemical
Excerpt: Paroxetine hydrochloride has been described in the literature as a crystalline hemihydrate (see EP-A-0223403 of Beecham Group) and as various crystalline anhydrate forms (see WO96/24595 of SmithKline Beecham plc). These known forms are not ideally suited for all pharmaceutical applications. […] Furthermore, liquids can be dispensed into unit dosages more conveniently and precisely than solids, and the use of liquid feedstocks reduces hazards associated with dust. In addition, the known solid forms of paroxetine hydrochloride are relatively insoluble and are slow to dissolve completely.
The product is homogenous without any further processing and is obtained in 100% yield, a higher yield than is possible in any crystallisation process.

Structure (SMILES): Fc1ccc([C@@H]2CCNC[C@H]2COc2ccc3c(c2)OCO3)cc1 [paroxetine hydrochloride hemihydrate, Paroxetine hydrochloride hemihydrate]
stability of aqueous solution of a concentration suitable for freeze-drying ([1]; highly supersaturated with respect to paroxetine hydrochloride hemihydrate): sufficiently stable for sterile filtration and liquid processing

Structure (SMILES): Fc1ccc([C@@H]2CCNC[C@H]2COc2ccc3c(c2)OCO3)cc1 [paroxetine hydrochloride, (−)trans isomer of 4-(4′-fluorophenyl)-3-(3′,4′-methylenedioxyphenoxymethyl)-piperidine]
solubility in water [2]: low solubility in water
stability of aqueous solution ([1]; ambient temperature, once dissolved, in the absence of seeds of a crystalline form): stable at ambient temperature for many days

dissolution of the freeze-dried product [3]: dissolves quickly and completely
Structure (SMILES): Fc1ccc([C@@H]2CCNC[C@H]2COc2ccc3c(c2)OCO3)cc1 [freeze-dried paroxetine hydrochloride, paroxetine hydrochloride]
stability of reconstituted aqueous solution ([1]; freeze-dried product dispersed in water, concentration for parenteral dosage, supersaturated with respect to hemihydrate): sufficiently stable for liquid dispensing
